In article PMC6664820, “Novel natural and synthetic inhibitors of solute carriers SGLT1 and SGLT2” (Pharmacology Research & Perspectives, 2019):
Counter-ions that a name gives are not always drawn. Like-named read-outs stand apart in the source and are kept apart here.

How the values were obtained:
CHO‐hSGLT1/2 cells = assay: Cytotoxicity assay (ToxiLight, adenylate kinase leakage into CHO‐SGLT1/2 inhibition assay media); design: CYTOTOXICITY / CY[…], mean / CYTOTOXICITY (% of vehicle control) Mean / CYTOTOXICITY, mean / CY[…] (% of vehicle control) Mean: dose or concentration left out as unconfirmed; conditions: for CYTOTOXICITY, mean: ToxiLight, adenylate kinase leakage;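 for all read-outs here: bioluminescent read-out of adenylate kinase released from lysed cells into the medium, given relative to DMSO vehicle control defined as 0%, higher meaning more cytolysis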
Procedure: The cytotoxicity of representative SGLT1/2 inhibitors and compounds from the different chemical clusters was tested. Cytotoxicity was determined using the ToxiLight bioassay kit according to the supplier's instructions. This nondestructive assay measures leakage of the enzyme adenylate kinase (AK) from damaged cells into the CHO‐SGLT1/2 inhibition assay media, ie the degree of cytolysis. […] Next, bioluminescence was measured using a FlexStation 3 Multi‐Mode Microplate Reader (Molecular Devices) by 1 second integrated reading. Cytotoxicity was expressed as the percentage of bioluminescence of the DMSO vehicle control which was set at 0%. If applicable, statistical outliers were determined using Grubbs’ test (alpha = 0.05) and excluded for calculation of the mean ± SD.

hSGLT2 = biological target: T1, hSGLT2 (Homo sapiens, UniProt P31639); assay: SGLT2 inhibition assay for validation of screening hits and similar compounds (1‐NBD‐glucose uptake, CHO‐hSGLT2 cells); type: cell-based; design: activity: dose or concentration left out as unconfirmed; conditions: for SGLT2/SGLT1 ACTIVITY RATIO, first concentration / SGLT2/SGLT1 ACTIVITY RATIO, second concentration: ratio of normalized SGLT2 to SGLT1 activity; for activity: compound, mean, normalized 1-NBD-glucose uptake, CHO-hSGLT2 cells
T1 sequence (P31639 1-672): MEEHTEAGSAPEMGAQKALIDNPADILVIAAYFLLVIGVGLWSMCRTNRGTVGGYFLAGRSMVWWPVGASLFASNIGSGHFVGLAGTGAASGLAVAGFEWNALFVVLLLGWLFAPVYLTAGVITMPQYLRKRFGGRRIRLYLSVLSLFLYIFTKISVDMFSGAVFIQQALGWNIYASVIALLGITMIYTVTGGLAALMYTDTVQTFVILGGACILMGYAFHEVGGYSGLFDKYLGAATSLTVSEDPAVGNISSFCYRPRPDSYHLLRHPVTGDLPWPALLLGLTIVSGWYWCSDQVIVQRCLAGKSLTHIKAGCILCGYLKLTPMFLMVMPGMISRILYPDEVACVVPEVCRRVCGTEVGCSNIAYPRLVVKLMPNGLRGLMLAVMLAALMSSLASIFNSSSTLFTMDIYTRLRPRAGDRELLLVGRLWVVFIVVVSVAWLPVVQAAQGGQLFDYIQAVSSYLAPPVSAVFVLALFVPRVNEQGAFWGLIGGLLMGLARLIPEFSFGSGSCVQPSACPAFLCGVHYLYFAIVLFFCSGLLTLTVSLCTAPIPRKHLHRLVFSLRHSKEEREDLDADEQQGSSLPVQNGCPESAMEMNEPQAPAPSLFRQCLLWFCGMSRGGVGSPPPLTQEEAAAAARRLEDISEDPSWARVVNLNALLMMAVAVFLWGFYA

[1] = ratio of normalized SGLT2 to SGLT1 activity at 5 uM

Row | Structure (SMILES) | SGLT2/SGLT1 ACTIVITY RATIO 5 uM Mean (hSGLT2; [1]) | CYTOTOXICITY, mean (CHO‐hSGLT1/2 cells) | SGLT2/SGLT1 ACTIVITY RATIO, first concentration (hSGLT2) | SGLT2/SGLT1 ACTIVITY RATIO, second concentration (hSGLT2) | CY[…] (% of vehicle control) Mean (CHO‐hSGLT1/2 cells) | activity (hSGLT2) | other results
1 | CC=C(C)C(=O)O[C@H]1c2c(ccc3ccc(=O)oc23)OC(C)(C)[C@H]1OC(=O)C(C)=CC [Praeruptorin B - JR MediChem] | 0.9 |  |  |  |  |  | CYTOTOXICITY (% of vehicle control) Mean (CHO‐hSGLT1/2 cells): -19 % of vehicle control
2 | CC1(C)C(=O)C=C[C@@]2(C)C1=C(O)C(=O)[C@]1(C)[C@@H]2[C@@H](O)CC2=C(c3ccoc3)C[C@@H](O)[C@]21C [Walsuronoid B] |  | -23 | 0.9 | 1.0 |  |  | 
3 | CC1(C)C(=O)C=C[C@@]2(C)C1=C(O)C(=O)[C@]1(C)[C@@H]2[C@@H](O)C[C@@]2(C)[C@H](c3ccoc3)C[C@H]3O[C@]321 [11beta-Hydroxycedrelone] |  | -13 | 1.7 | 1.2 |  |  | 
4 | OC(CCN1CCCCC1)(c1ccccc1)C1CCCCC1 (racemic) [(±)-Trihexyphenidyl HCl] |  |  |  |  | -12 % of vehicle control |  | SGLT2/SGLT1 ACTIVITY RATIO 5 uM Mean (hSGLT2): 1.0; SGLT2/SGLT1 ACTIVITY RATIO 50 mM Mean (hSGLT2): 1.3
5 | CC(C)COCC(CN(Cc1ccccc1)c1ccccc1)N1CCCC1 (stereo not drawn) [Bepridil HCl] | 1.1 |  |  |  | 3.67 % of vehicle control | 65% | 
6 | CCN(CC)CCOC(=O)C(c1ccccc1)C1CCCCC1 (stereo not drawn) [Drofenine HCl] |  |  |  |  | 1.71 % of vehicle control | 72% | 
7 | CN1CCOC(c2ccccc2)c2ccccc2C1 (stereo not drawn) [Nefopam HCl] | 0.9 |  |  |  | -25 % of vehicle control |  | 
8 | Cc1ccccc1C(OCCN(C)C)c1ccccc1 (stereo not drawn) [Orphenadrine HCl] |  |  |  |  |  |  | CYTOTOXICITY (% of vehicle control) Mean (CHO‐hSGLT1/2 cells): 9 % of vehicle control
9 | COc1cc2c(=O)c(-c3ccc(O)cc3)coc2cc1O[C@@H]1O[C@H](CO)[C@@H](O)[C@H](O)[C@H]1O [Glycitin] | 1.1 |  |  |  |  | 106% | CYTOTOXICITY (% of vehicle control) Mean (CHO‐hSGLT1/2 cells): -22 % of vehicle control
10 | CC1(C)C(=O)C=C[C@@]2(C)C1=C(O)C(=O)[C@]1(C)[C@@H]2CC[C@@]2(C)[C@H](c3ccoc3)C[C@H]3O[C@]321 [Cedrelone] |  | -26 | 1.2 | 1.1 |  |  | 
11 | CC(CN(C)C)CN1c2ccccc2CCc2ccccc21 (stereo not drawn) [Trimipramine maleate] | 1.0 |  |  |  | -9 % of vehicle control | 87% | 
12 | CC(=O)O[C@H]1C[C@@H](OC(C)=O)[C@@]2(C)CO[C@H]3[C@@H](O)[C@@]4(C)C5=CC[C@@H](c6ccoc6)[C@]5(C)CC[C@@H]4[C@]1(C)[C@@H]32 [1,3-Diacetylvilasinin] |  | -18 | 1.1 | 1.1 |  |  | 
13 | CNCCCN1c2ccccc2CCc2ccccc21 [Desipramine HCl] | 0.759 |  |  |  | -19 % of vehicle control |  | 
